Measurements taken from article PMC4710668, “Bioactivation of food genotoxicants 5-hydroxymethylfurfural and furfuryl alcohol by sulfotransferases from human, mouse and rat: a comparative study” (Archives of Toxicology, 2014).
Where “and” joins values, the source holds several entries; their conditions need not be identical. Identical values can stand only once.

What was measured:
Test in all cases: FFA sulfoconjugation assay (N6-MF-A formation with adenosine as scavenger)
Type in all cases: biochemical
[1] = biological target: T1, rSult2a3 (Rattus norvegicus, UniProt P22789)
T1 construct: made in house; host or cells: Salmonella typhimurium TA1538 (cytosolic fraction, enzyme not purified)
T1 sequence (P22789 2-284 limits assumed): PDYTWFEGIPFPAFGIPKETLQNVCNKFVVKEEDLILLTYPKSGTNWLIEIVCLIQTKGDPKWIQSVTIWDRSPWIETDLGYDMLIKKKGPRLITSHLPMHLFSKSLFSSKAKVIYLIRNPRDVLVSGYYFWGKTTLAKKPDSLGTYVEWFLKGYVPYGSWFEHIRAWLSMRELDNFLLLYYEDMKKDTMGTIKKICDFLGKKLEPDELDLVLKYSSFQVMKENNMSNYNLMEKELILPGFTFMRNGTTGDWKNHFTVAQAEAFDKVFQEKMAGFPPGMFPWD
Description: (§1) Cytosolic fractions containing individual SULT forms were prepared from transgenic S. typhimurium TA1538. Table S1 in the Supplementary Material provides a summary of the thirty SULTs used in the current study together with references describing the cloning of the respective S. typhimurium TA1538 strains. The expressed SULT forms are denoted with the prefixes h, m and r for human, mouse and rat enzymes, respectively. Bacteria were grown in Luria Broth medium containing ampicillin (100 µg/ml) by stirring for 8 h at 200 revolutions/min at 37 °C. The bacterial suspensions were centrifuged at 5,000 g for 10 min. The sediments were washed twice with 25 ml of 10 mM potassium phosphate buffer (pH 7.4)/50 mM potassium chloride (KCP buffer) and centrifuged again. The pellets were taken up in 800 µl KCP buffer and sonicated thrice for 15 s with 30 s pauses in between. The soluble fraction was attained by centrifuging for 1 h at 100,000 g. The supernatants (in the following termed cytosolic preparations) were frozen at −80 °C. The protein concentrations were determined according to a bicinchoninic acid (BCA) assay protocol. The SULT concentrations in the cytosolic preparations were estimated after electrophoretic separation and immunodetection using inclusion bodies of different SULT forms as standards (Teubner et al. [2007]). The preparation of SULT inclusion bodies and the immunodetection of SULTs is described in the Supplementary Material, which also contains a representative immunoblot of different amounts of rSult1a1standard and a cytosolic preparation of S. typhimurium expressing rSult1a1 (Fig. S1).
(§2) The reaction mixtures were prepared as described for HMF. In addition, they contained 10 mM adenosine as a nucleophilic scavenger. Following incubation for 20 min at 37 °C, sulfoconjugation reactions were stopped by adding 100 µl cold methanol containing 175 fmol of [^15N5]N ^6-MF-A as the internal standard, mixed and centrifuged at 15,000 g for 10 min. The clear supernatants were subjected to UPLC-MS/MS analyses. Incubations were performed as quadruplicates. At higher concentrations, FFA reacts spontaneously with adenosine at low, but detectable, levels. To correct for the SULT-independent adduct formation, mixtures with SULT-deficient cytosols were carried along simultaneously in duplicate. Controls were subtracted from the experimental samples.
(§3) The ribonucleoside adduct N ^6-((furan-2-yl)methyl)-adenosine (N ^6-MF-A) was analyzed by isotope-dilution UPLC-MS/MS with the same system described above using a HSS T3 column (1.8 µm, 2.1 × 100 mm, Waters). Samples of 8 µl were eluted with 10 mM ammonium bicarbonate buffer, pH 8.0 (A) and methanol (B) using an 6-min gradient from 98 % solvent A to 15 % solvent A at 0.35 ml/min flow rate (Yin et al. [2013]). The electrospray interface of the mass spectrometer operated in the positive ion mode. The fragmentations of N ^6-MF-A into the aglycone cation [N ^6-((furan-2-yl)methyl)-adenine-H]^+ (m/z = 348.1 → 216.1), the cleavage of the 2-methylfuranyl cation (m/z = 348.1 → 81.0) and the release of [N ^6-methyl-adenine-H]^+ (m/z = 348.1 → 148.0) were monitored together with the corresponding fragmentations of the isotope-labeled internal standard [^15N5]N ^6-MF-A for the formation of the aglycone (m/z = 353.1 → 221.1), the 2-methylfuran cation (m/z = 353.1 → 81.0) and ^15N5-labeled N ^6-methyl-adenine (m/z = 353.1 → 153.0). The N ^6-MF-A content of the incubation mixture was calculated from the ratio of peak areas resulting from the total ion current of all three MRM signals of the analyte. For the fragmentation of N ^6-MF-A ([^15N5]N ^6-MF-A), collision energies were 20, 25 and 35 eV for the transitions m/z = 348.1 → 216.1 (m/z = 353.1 → 221.1), m/z = 348.1 → 148.0 (m/z = 353.1 → 153.0) and m/z = 348.1 → 81.0 (m/z = 353.1 → 81.0), respectively. […]

[2] = biological target: T2, hSULT1C2 (Homo sapiens, UniProt O75897)
T2 construct: made in house; host or cells: Salmonella typhimurium TA1538 (cytosolic fraction, not purified)
T2 sequence (O75897 whole entry): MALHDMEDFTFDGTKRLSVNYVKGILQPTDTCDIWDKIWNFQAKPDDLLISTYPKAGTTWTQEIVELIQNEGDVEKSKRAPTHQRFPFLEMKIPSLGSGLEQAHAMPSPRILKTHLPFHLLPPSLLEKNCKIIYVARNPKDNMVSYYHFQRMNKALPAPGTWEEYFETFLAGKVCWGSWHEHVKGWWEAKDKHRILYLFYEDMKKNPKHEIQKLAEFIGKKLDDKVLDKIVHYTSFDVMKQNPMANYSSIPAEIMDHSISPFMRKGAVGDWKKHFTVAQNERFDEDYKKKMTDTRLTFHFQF
Description: as §1, §2, §3

[3] = biological target: T3, rSult2b1 (Rattus norvegicus, UniProt Q29YR5)
T3 construct: made in house; host or cells: Salmonella typhimurium TA1538 (cytosolic fraction, enzyme not purified)
T3 sequence (Q29YR5 1-340): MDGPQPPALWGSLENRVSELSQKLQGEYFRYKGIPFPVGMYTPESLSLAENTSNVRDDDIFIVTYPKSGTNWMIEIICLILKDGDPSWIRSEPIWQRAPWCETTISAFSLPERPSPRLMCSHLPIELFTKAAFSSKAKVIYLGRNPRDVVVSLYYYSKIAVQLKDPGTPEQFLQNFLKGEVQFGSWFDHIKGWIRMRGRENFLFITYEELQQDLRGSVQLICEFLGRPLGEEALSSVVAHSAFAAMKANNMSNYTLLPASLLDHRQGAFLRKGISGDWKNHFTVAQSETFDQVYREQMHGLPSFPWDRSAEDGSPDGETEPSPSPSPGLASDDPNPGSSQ
Description: as §1, §2, §3

[4] = biological target: T4, mSult1c2 (Mus musculus, UniProt Q9D939)
T4 construct: made in house; host or cells: Salmonella typhimurium TA1538 (cytosolic fraction, enzyme not purified)
T4 sequence (Q9D939 whole entry): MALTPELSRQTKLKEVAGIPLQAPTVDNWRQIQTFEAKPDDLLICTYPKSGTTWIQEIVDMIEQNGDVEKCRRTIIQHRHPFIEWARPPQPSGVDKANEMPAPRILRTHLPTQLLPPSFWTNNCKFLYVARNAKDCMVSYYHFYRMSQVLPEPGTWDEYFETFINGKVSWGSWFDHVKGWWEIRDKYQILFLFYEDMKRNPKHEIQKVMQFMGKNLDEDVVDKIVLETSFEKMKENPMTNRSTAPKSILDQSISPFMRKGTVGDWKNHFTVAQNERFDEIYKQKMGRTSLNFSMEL
Description: as §1, §2, §3

[5] = biological target: T5, mSult1d1 (Mus musculus, UniProt Q3UZZ6)
T5 construct: made in house; host or cells: Salmonella typhimurium TA1538 (cytosolic fraction, enzyme not purified)
T5 sequence (Q3UZZ6 whole entry): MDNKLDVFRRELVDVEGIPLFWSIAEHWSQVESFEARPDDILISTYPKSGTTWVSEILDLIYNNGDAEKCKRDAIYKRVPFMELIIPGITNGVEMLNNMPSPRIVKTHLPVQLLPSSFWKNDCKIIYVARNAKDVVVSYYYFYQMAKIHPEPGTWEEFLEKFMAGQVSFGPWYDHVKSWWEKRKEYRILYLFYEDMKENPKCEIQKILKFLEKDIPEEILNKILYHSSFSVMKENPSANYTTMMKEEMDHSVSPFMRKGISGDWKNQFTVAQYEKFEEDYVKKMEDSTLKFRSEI
Description: as §1, §2, §3

[6] = 1 mM FFA, corrected by actual SULT concentration in the cytosolic preparation

OCc1ccco1 [FFA, furfuryl alcohol]
Rate of N6-MF-A formation ([1]; 0.1 mM FFA): 48.3 ± 1.3 fmol N ^6-MF-A/mg/min
Rate of N6-MF-A formation ([1]; 1 mM FFA): 461 ± 8 fmol N ^6-MF-A/mg/min
Rate of N6-MF-A formation ([1]; 10 mM FFA): 3,420 ± 30 fmol N ^6-MF-A/mg/min
Rate of N6-MF-A formation ([2]; 0.1 mM FFA): 51.3 ± 0.8 fmol N ^6-MF-A/mg/min
Rate of N6-MF-A formation ([2]; 1 mM FFA): 459 ± 2 fmol N ^6-MF-A/mg/min
Rate of N6-MF-A formation (corr.) [2, 6]: 45,900 fmol N ^6-MF-A/mg/min and 45,900 ± 200 fmol N ^6-MF-A/mg/min
Rate of N6-MF-A formation ([2]; 10 mM FFA): 2,230 ± 10 fmol N ^6-MF-A/mg/min
Rate of N6-MF-A formation ([3]; 0.1 mM FFA): <18 fmol N ^6-MF-A/mg/min
Rate of N6-MF-A formation ([3]; 1 mM FFA): <20 fmol N ^6-MF-A/mg/min
Rate of N6-MF-A formation ([3]; 10 mM FFA): <44 fmol N ^6-MF-A/mg/min
Rate of N6-MF-A formation ([4]; 0.1 mM FFA): <18 fmol N ^6-MF-A/mg/min
Rate of N6-MF-A formation ([4]; 1 mM FFA): <20 fmol N ^6-MF-A/mg/min
Rate of N6-MF-A formation ([4]; 10 mM FFA): <44 fmol N ^6-MF-A/mg/min
Rate of N6-MF-A formation ([5]; 0.1 mM FFA): 52.5 ± 1.7 fmol N ^6-MF-A/mg/min
Rate of N6-MF-A formation ([5]; 1 mM FFA): 468 ± 6 fmol N ^6-MF-A/mg/min
Rate of N6-MF-A formation (corr.) [5, 6]: 4,260 ± 60 fmol N ^6-MF-A/mg/min
Rate of N6-MF-A formation ([5]; 10 mM FFA): 2,610 ± 30 fmol N ^6-MF-A/mg/min
